Test results as given in ChEMBL document CHEMBL1158246, “New cytotoxic briaran diterpenes from the Formosan gorgonian Briareum sp” (1996).
In brackets after ≈: the same amount, converted by molar mass.

Experiments:
Assay type in all cases: functional
Conditions in all cases: read-out: ED50 (the source's name)
[1] = tested on: P388; experiment: Cytotoxicity against mouse P388 cells
[2] = tested on: HT-29; experiment: Cytotoxicity against human HT29 cells
[3] = tested on: A549; experiment: Cytotoxicity against human A549 cells
[4] = tested on: KB; experiment: Cytotoxicity against human KB cells

CC(=O)O[C@H]1C[C@@H]2O[C@]2(C)[C@@H]2[C@@H](OC(C)=O)[C@]34O[C@]3(C)C(=O)O[C@H]4/C=C(/C)CC[C@@H](OC(C)=O)[C@@]12C
EC50 [1]: 1.59 µg/mL (≈ 3.14 µM)
EC50 [2]: 10.1 µg/mL (≈ 19.9 µM)
EC50 [3]: 17.4 µg/mL (≈ 34.3 µM)
EC50 [4]: 24.4 µg/mL (≈ 48.3 µM)

CC(=O)O[C@H]1C[C@@H]2O[C@]2(C)[C@@H]2[C@@H](O)[C@]34O[C@]3(C)C(=O)O[C@H]4/C=C(/C)CC[C@@H](OC(C)=O)[C@@]12C
EC50 [1]: 0.61 µg/mL (≈ 1.31 µM)
EC50 [2]: 6.96 µg/mL (≈ 15 µM)
EC50 [3]: > 50 µg/mL
EC50 [4]: > 50 µg/mL

CC(=O)O[C@H]1CC=C(C)[C@@H]2[C@@H](O)[C@]34O[C@]3(C)C(=O)O[C@H]4/C=C(/C)CC[C@@H](OC(C)=O)[C@@]12C
EC50 [1]: 0.28 µg/mL (≈ 0.624 µM)
EC50 [2]: 8.27 µg/mL (≈ 18.4 µM)
EC50 [3]: 10.3 µg/mL (≈ 23.1 µM)
EC50 [4]: 0.27 µg/mL (≈ 0.602 µM)

CC(=O)O[C@H]1CC=C(C)[C@@H]2[C@@H](OC(C)=O)[C@]34O[C@]3(C)C(=O)O[C@H]4/C=C(/C)CC[C@@H](OC(C)=O)[C@@]12C [BRIAREOLIDE H]
EC50 [1]: 3.1 µg/mL (≈ 6.32 µM)
EC50 [2]: 0.29 µg/mL (≈ 0.591 µM)
EC50 [3]: > 50 µg/mL
EC50 [4]: > 50 µg/mL
